# Laboratory results reported in PubChem BioAssay AID504765 (Sanford-Burnham Center for Chemical Genomics, 2011).
# pIC50: −log10 of the molar value. The source made the active and inactive calls. The rule behind the calls is not given here.
# Target: glucose-6-phosphate dehydrogenase-6-phosphogluconolactonase (Plasmodium falciparum 3D7)
# Experiment: PfG6PD inhibitor potency, dose response, biochemical, fluorescence intensity (AID 504765)
# Conditions: Recombinant PfG6PD enzyme, fluorescence intensity (NADPH)
SMILES,pIC50,IC50
CCC(CO)[n+]1c(C)cc(/C=C2\Sc3ccccc3N2Cc2ccccc2)cc1C (stereo not drawn),4.91,–
O=C(Nc1nnc(S(=O)(=O)N2CCCC2)s1)c1cccc([N+](=O)[O-])c1,5.38,–
O=C(CCC(=O)Nc1ccccc1Cl)N/N=C/c1ccccc1,5.50,–
COc1cc(N2C(=O)C=CC2=O)ccc1N1C(=O)C=CC1=O,5.35,–
CC(=O)Nc1ccc2c(=O)n(-c3ccccc3)sc2c1,5.07,–
O=C(Sc1n[nH]c(=O)[nH]c1=O)c1ccccc1,5.48,–
CCOc1ccc2ccccc2c1/C=N/NC(=O)c1ccncc1,5.46,–
COc1cccc(/C=N/NC(=O)c2c(C)nc3ccc(Br)cn23)c1,5.54,–
Cc1ccnc(-n2sc3ccccc3c2=O)n1,4.93,–
COc1ccccc1NS(=O)(=O)c1cc(NC(=O)c2ccc(Cl)nc2)ccc1N1CCCC1,–,inactive
Cc1ccc(-c2c(C(=O)N/N=C/c3ccsc3)nnn2-c2nonc2N)cc1,–,inactive
O=C1C=CC(=O)N1c1ccc(-c2nc3ccccc3o2)cc1,4.90,–
O=C(Nc1sc2c(c1C(=O)O)CCC2)c1ccc(F)cc1,5.11,–
CN(C)c1ncc(C2=C(Cl)C(=O)C(N3CCCC3)=C(Cl)C2=O)s1,5.48,–
Cc1ccc(NC(=O)c2cc(N3C(=O)C=CC3=O)ccc2N2CCOCC2)cc1Cl,4.91,–
COC(=O)CCC(=O)OC1(C)C(=O)C2=CN(c3ccccc3)C(c3ccc(OC)cc3)=CC2=C(Br)C1=O (stereo not drawn),5.50,–
O=c1c2cc(C(F)(F)F)ccc2sn1-c1ccccc1,5.41,–
COc1ccc(C(=O)Nc2cc(Cl)ccc2C(=O)O)cc1,4.82,–
O=C1CCN(c2ccccc2)N1,5.87,–
Cc1nnc(Sc2cc(NCCO)c([N+](=O)[O-])c3nonc23)s1,5.25,–
Cc1ccc(S(=O)(=O)N(C)C)cc1NC(=O)CSc1nc2ncc(Cl)cc2[nH]1,4.92,–
CCN(CC)CCn1c2ccccc2c(=O)c2c(O)ccc(O)c21,5.62,–
CC(NC(=O)c1sc2cc([N+](=O)[O-])ccc2c1Cl)C(C)(C)C (stereo not drawn),4.73,–
CC(C)c1nnc(NC(=O)c2sc3ccccc3c2Cl)s1,5.19,–

SMILES,pIC50,IC50
CCCN1CCc2cc(O)cc3c2[C@H]1Cc1ccc(O)c(O)c1-3,4.97,–
Cc1ccc(C(=O)/C=C/C(=O)c2ccc(C)cc2)cc1,5.14,–
c1nc(SSc2ncnc3nc[nH]c23)c2[nH]cnc2n1,5.32,–
O=C(Nc1ccccn1)c1sc2cc([N+](=O)[O-])ccc2c1Cl,–,inactive
Cc1ccc(/C=C2\C(=O)NC(=S)N(c3ccccc3F)C2=O)s1,–,inactive
CCOC(=O)CSc1nnc(NC(=O)c2cccc([N+](=O)[O-])c2)s1,5.19,–
COc1cccc(C=Nc2cc(C(C)C)c(O)cc2C)c1O,5.26,–
CN1CCN(C(=S)c2ccc([N+](=O)[O-])cc2)CC1,–,inactive
NNC(=O)CN1C(c2ccccc2Br)=Nc2ccc(Br)cc2C1c1ccccc1 (stereo not drawn),5.47,–
CC(=O)OCC1(C)CN(c2ccccc2)NC1=O (stereo not drawn),5.28,–
COc1cc(C(=O)ON=C2C=C(C)C(=O)C(C)=C2)cc(OC)c1OC,5.29,–
C=CCc1ccccc1OCC(=O)N/N=C/c1ccccc1OCC,5.20,–
CN1CCN(C(=O)c2sc(=S)n(-c3ccccc3)c2N)CC1,5.14,–
O=C1NC(=S)NC(=O)C1=Cc1ccc(Br)s1,5.10,–
Cc1cc(C)c2c(=N)c3ccccc3n(CCCCCCCCn3c4ccccc4c(=N)c4c(C)cc(C)nc43)c2n1,5.00,–
COc1cccc(-c2c(C(=O)N/N=C/c3ccc(C)o3)nnn2-c2nonc2N)c1,4.88,–
Cc1ccc(-c2c(C(=O)N/N=C/c3ccc(C)o3)nnn2-c2nonc2N)cc1,5.84,–
COc1ccc(-n2c(=S)[nH]c3c(sc(=S)n3-c3ccccc3)c2=O)c(OC)c1,–,inactive
CC1COCC(C)N1C1=C(Cl)C(=O)c2ccccc2C1=O (stereo not drawn),5.14,–
COc1ccc(S(=O)(=O)/N=C2\C=C(Nc3ccc(O)cc3)C(=O)c3ccccc32)cc1,–,inactive
S=c1ncc2[nH]c(=S)[nH]c2[nH]1,5.36,–
COc1cc(N)c2ncccc2c1OC,4.78,–
C=CCN=c1scc(-c2ccco2)n1/N=C/c1ccc(O)c(O)c1O,–,inactive
C#CCCc1cscc1/C=[N+](\[O-])c1ccc(C(=O)OCC)cc1,5.53,–

SMILES,pIC50,IC50
COCCn1nnnc1C(c1cc2cc(OC)c(OC)cc2[nH]c1=O)N1CCN(c2ccc(O)cc2)CC1 (stereo not drawn),–,inactive
O=C(CNC(=O)c1cccs1)OCC(=O)c1ccc([N+](=O)[O-])cc1,4.86,–
[O-][N+](=Cc1ccccc1)c1ccc(Cl)cc1,5.48,–
COc1cc(CNc2ccc(N3CCCC3)cc2)ccc1OCc1ccccc1F,5.62,–
CCN1CCN(C(=S)c2ccc(Cl)c(Cl)c2)CC1,–,inactive
CCc1nnc(NC(=O)c2ccc(Cl)nc2)s1,4.81,–
CN1C(=O)CSc2ccc(NC(=O)N3CCc4ccccc43)cc21,4.82,–
Cc1ccc2nc3sc(C(=O)N4CCOCC4)c(N)c3cc2c1,4.89,–
COc1ccc(CCn2c(NN=C3CCCCC3)nc3c2c(=O)[nH]c(=O)n3C)cc1,5.78,–
c1ccc(OCc2nnc3n2N=C(c2ccccc2)CS3)cc1,4.77,–
Cc1ccc(/C=C/C(=O)Nc2ccc([N+](=O)[O-])c(NC(=O)/C=C/c3ccc(C)o3)c2)o1,5.32,–
O=C(Nc1ccc([N+](=O)[O-])cc1Cl)c1cc(Cl)ccc1O,4.86,–
Cc1nc2ccccn2c1-c1ccnn1S(=O)(=O)c1ccc(F)cc1,4.82,–
CCOc1cc(NCc2ccccc2)c2ncn(C(C)C)c2c1,–,> 80 µM (inactive)
O=c1c2ccccc2sn1-c1ccc(Cl)cc1,5.55,–
O=C1OC(c2ccc3ccccc3c2O)(c2ccc3ccccc3c2O)c2ccccc21,4.84,–
COC(=O)[C@H](CCSC)NC(=O)c1cc2c(cn1)[nH]c1ccccc12,–,inactive
Cc1[nH]c2ccccc2c1/C=N/Nc1nncn1N,5.25,–
COc1ccc(CN(C)S(=O)(=O)c2nnc(NC(=O)c3cccc(C)c3)s2)cc1OC,5.16,–
Nn1c(CSc2nc3ccccc3o2)nnc1CSc1nc2ccccc2o1,4.94,–
CCC1(C)CC(C(N)=S)CCO1 (stereo not drawn),–,inactive
COc1ccc(NC(=S)N(CCC(C)C)C2CCN(C(C)C)CC2)cc1Cl,4.84,–
CC(C)Cn1c([N+](=O)[O-])nc2c1c(=O)[nH]c(=O)n2C,4.84,–
Cn1c(=O)c2[nH]c(-c3ccccc3)c(O)c2n(C)c1=O,5.02,–

SMILES,pIC50,IC50
COc1cc(/C=N/Nc2nncn2N)ccc1OCc1c(C)no[n+]1[O-],5.05,–
Cc1ccc(CNc2ccc(O)cc2)cc1,5.06,–
Cc1ccc(C(=O)NCC(=O)NCC(=O)OCC(=O)c2ccc([N+](=O)[O-])cc2)cc1,5.23,–
NC1CCc2cc(O)c(O)cc2C1 (stereo not drawn),–,inactive
CCCCC1C(=O)N(c2ccccc2)N(c2ccc(O)cc2)C1=O (stereo not drawn),4.90,–
CC1=NOC(=O)/C1=C\c1ccc(-c2ccccc2Br)o1,–,inactive
COc1ccc(CCn2c(NN=C3CCCC3)nc3c2c(=O)[nH]c(=O)n3C)cc1,5.02,–
C=CCOc1c(Cl)cc(CNc2ccc3[nH]c(=O)[nH]c3c2)cc1OC,5.10,–
CN1CCc2cccc3c2[C@@H]1Cc1ccc(O)c(O)c1-3,5.08,–
CCOC(=O)Cc1cc(=O)n2[nH]c(C(C)(C)C)cc2n1,5.15,–
CC(=O)Nc1cc(OC(C)=O)c2nonc2c1OC(C)=O,4.92,–
O=c1ccsn1Cc1ccccc1,5.64,–
Cc1nnc(SCC(=O)c2cc(C)n(-c3ccc4c(c3)OCO4)c2C)s1,5.13,–
CCC(c1ccc(O)c(O)c1)C(CC)c1ccc(O)c(O)c1 (stereo not drawn),–,inactive
Cc1cc(C)c2sc(NC(=O)C3=COCCO3)nc2c1,4.96,–
Cc1ccc(S(=O)(=O)SC/C=C/CSS(=O)(=O)c2ccc(C)cc2)cc1,4.99,–
CCNc1ccccc1CP(=O)(c1ccccc1)c1ccccc1O (stereo not drawn),5.17,–
O=C(O)c1cc(N2C(=O)C=CC2=O)cc(N2C(=O)C=CC2=O)c1,5.36,–
Cc1ccc(-c2nc(N)s[n+]2-c2ccccc2)cc1,5.04,–
CCOc1ccccc1CNc1ccc(O)cc1,4.72,–
CN1/C(=C\C(=O)c2cccs2)Sc2ccccc21,5.13,–
CCN=c1scc(C)n1/N=C/c1ccc(O)c(O)c1O,5.16,–
Cc1ccccc1N/C(SCc1cccc(Br)c1)=C(/C#N)C(N)=O,5.23,–
Nc1ccc(N(CCO)CCO)cc1,5.33,–

SMILES,pIC50,IC50
O=C1C(Cl)=C(NCCc2ccccc2)C(=O)c2ccccc21,5.48,–
COc1c2ccoc2c(OCC=C(C)C)c2oc(=O)ccc12,–,inactive
CN1CCN(C(=S)c2ccc(Br)cc2)CC1,–,inactive
Cc1cc(C)c(NC(=S)NCC2CCN(C(C)c3ccccc3)C2)c(C)c1 (stereo not drawn),4.83,–
O=C(Nc1nnc(S(=O)(=O)N2CCCCC2)s1)c1cccc(Br)c1,5.20,–
CCN1CCCC1CNC(=O)c1ccc2c(c1)NC(=O)/C(=C\c1ccccc1F)S2 (stereo not drawn),5.71,–
Cn1c(=O)[nH]c(=O)c2c1nc(SCCN1CCCCC1)n2CCCc1ccccc1,4.85,–
COc1cccc(-c2c(C(=O)N/N=C/c3ccc(C)s3)nnn2-c2nonc2N)c1,5.17,–
COC1=C(Br)C(=O)c2nc(C)ccc2C1=O,5.37,–
CN1CCc2cccc3c2[C@H]1Cc1ccc(O)c(O)c1-3,5.08,–
CCn1c2ccccc2c2cc(/C=N/n3cn[nH]c3=S)ccc21,5.01,–
Oc1ccc(/C=N/N=C(c2ccccc2)c2ccccc2)c(O)c1O,4.87,–
Cc1ccsc1/C=N\NC(=O)CC(=O)NCc1ccccc1,5.19,–
N#CC(C#N)=C1C=CC=CN1/C(=C\c1ccccc1Cl)C(=O)c1ccccc1,5.08,–
O=C(Cn1sc2ccccc2c1=O)Nc1ccc(Br)cc1,5.29,–
Cn1c(=O)[nH]c(=O)c2c1nc([N+](=O)[O-])n2Cc1ccccc1,5.50,–
O=S(=O)(Nc1ccccc1F)c1cccc(NC(=S)NCCN2CCOCC2)c1,5.10,–
O=C(CCC(=O)OCC(=O)c1ccc([N+](=O)[O-])cc1)Nc1ccccc1Cl,5.18,–
CCn1c([N+](=O)[O-])nc2c1c(=O)[nH]c(=O)n2C,4.91,–
Cc1ccc(S(=O)(=O)C=CS(=O)(=O)c2ccc(C)cc2)cc1,5.18,–
O=S(c1ccccc1O)S(=O)c1ccccc1O (stereo not drawn),5.31,–
Fc1cccc(Cl)c1CNc1ccc(N2CCCC2)cc1,5.39,–
